Numbers after ± are expanded uncertainties.
Details: Crystal; DTA

Nc1ccc(N)c2c1C(=O)c1ccccc1C2=O [1,4-diaminoanthraquinone]
Normal melting temperature: 243.12 ± 0.5 °C

From the NIST ThermoML archive (doi:10.1021/je8003673)
